# Laboratory results as given in US10962528B2, “Blue fluorescent protein monomers and uses thereof” (WISYS TECHNOLOGY FOUNDATION, INC., priority 2015, dated 2021).
# pKd: −log10 of the molar value.
# Legend:
# [1] = biological target: T1, Sander vitreus (blue walleye) Sandercyanin fluorescent protein (SFP), wild type, SEQ ID NO:1 (recombinant without signal peptide SEQ ID NO:31) (Sander vitreus, UniProt A0A1D5B367); experiment: Binding of biliverdin to (apo) Sandercyanin by fluorescence titration
# T1 construct: apo monomer, tetramer with biliverdin
# T1 sequence (A0A1D5B367 1-170): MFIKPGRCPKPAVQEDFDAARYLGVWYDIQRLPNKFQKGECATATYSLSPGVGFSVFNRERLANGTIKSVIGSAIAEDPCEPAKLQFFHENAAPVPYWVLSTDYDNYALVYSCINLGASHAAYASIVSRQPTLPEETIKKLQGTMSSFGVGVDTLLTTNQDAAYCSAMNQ
# Method: FIGS. 11C-11D (C) Titration of apo-SFP (20 uM) with BV IXα measured at 675 nm with λex=375 nm (green) and 630 nm (red). (D) Photo-bleaching kinetics of Sandercyanin and free-biliverdin (BV).
# Addition of the biliverdin to apo-protein results in red-shift in the fluorescence of Sandercyanin to near infra-red (NIR) region. Molar extinction coefficient of holoSFP measured in phosphate buffer of pH 7.4 at 375 nm and 630 nm are 21,000 M^−1 cm^−1 and 13,500 M^−1 cm^−1 respectively and quantum yield is determined to be 0.016. Further, fluorescence spectra is widely spread into the infrared region with minimal overlap with the excitation spectra. We examined the affinity of apoSFP towards BV using fluorescence and determined Kd of 6 μM.
# Native SFP was extracted and purified from the mucus of Blue Walleye from Northwest Ontario by various chromatographic methods as described previously (Chi Li et al). A putative amino acid sequence of SFP was determined from crystal structure of the native protein, confirmed and corrected after whole genome sequencing of Blue Walleye. […]
# All experiments were performed with purified SFP samples (apo and holo forms) at pH 7.5 and room temperature. UV-Visible absorbance spectra of native and recombinant SFP were recorded from 800 to 200 nm with ultraspec 2100 pro spectrophotometer from Amersham Biosciences. CD spectra were measured on JASCO J-815 Spectropolarimeter. […]
# [2] = biological target: Sander vitreus Sandercyanin fluorescent protein (SFP) variant SFP-A137E, SEQ ID NO:4 (Sander vitreus, UniProt A0A1D5B367, A118E); experiment: Biliverdin binding of monomeric SFP variant
# Chain of Sander vitreus Sandercyanin fluorescent protein (SFP) variant SFP-A137E, SEQ ID NO:4 (A0A1D5B367 entry or part of it A118E): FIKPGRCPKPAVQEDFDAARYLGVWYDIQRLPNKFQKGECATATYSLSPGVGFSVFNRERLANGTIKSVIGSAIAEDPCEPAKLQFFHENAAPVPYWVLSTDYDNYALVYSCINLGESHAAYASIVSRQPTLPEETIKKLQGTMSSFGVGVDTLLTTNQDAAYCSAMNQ
# Method: (§1) All experiments were performed with purified SFP samples (apo and holo forms) at pH 7.5 and room temperature. UV-Visible absorbance spectra of native and recombinant SFP were recorded from 800 to 200 nm with ultraspec 2100 pro spectrophotometer from Amersham Biosciences. CD spectra were measured on JASCO J-815 Spectropolarimeter. Steady state fluorescence, excitation, binding and photobleaching studies were monitored on Horiba Jobin Yvon Fluoromax-4 fluorimeter. Data analysis were done using Origin6 and Origin8 software. Hydrogen was exchanged with Deuterium by increasing concentrations of D2O to a standard protein concentration. Deuteriated proteins were prepared in the same buffer, incubated for 15 minutes, and monitored for spectral properties.
# (§2) All SFP variants were expressed using E. coli BL21*(DE3) cells. Briefly, each of the SFP monomer mutant genes in pET21a vector were transformed into BL21*(DE3) cells and selected on a LB agar plate containing ampicillin (100 μg/mL). For large scale expression, about 5 mL of the overnight grown primary culture was inoculated into 500 mL of LB medium containing 100 μg/mL ampicillin. Cells were grown at 37° C. until OD600 nm reached to 0.6-0.7. Then, cells were induced using 0.2 mM isopropyl-thiogalactoside (IPTG). Post-induction cells were grown at 20° C. for 20 hours. Thereafter, cells were harvested by centrifugation at 6000 rpm for 10 minutes. Bacterial cell pellet containing SFP as insoluble protein was resuspended in a lysis buffer (20 mM Tris-HCl, pH 7.5, 10 mM EDTA and 1% TritonX). […] Thus, refolded purified SFP was checked using an analytical gel filtration column for oligomerization state and biliverdin (BV) binding by UV-visible absorbance and fluorescence spectroscopy (FIGS. 1A-1D).
# (§3) Characterization of monoSFP Variants—MonoSFP variants were characterized by size-exclusion chromatography during purification of the proteins. […] They have far-red to near infra-red fluorescence with large Stokes shift. […] To test this, we performed detergent (Triton X-100) assays with the monoSFPs and measured absorbance and fluorescence spectra. […]
# [3] = biological target: Sander vitreus Sandercyanin fluorescent protein (SFP) variant SFP-L135E (mSFP2), SEQ ID NO:3 (Sander vitreus, UniProt A0A1D5B367, L116E); experiment: Biliverdin binding of monomeric SFP variant
# Chain of Sander vitreus Sandercyanin fluorescent protein (SFP) variant SFP-L135E (mSFP2), SEQ ID NO:3 (A0A1D5B367 entry or part of it L116E): as the sequence (A0A1D5B367 entry or part of it A118E) above, with L115E, E117A counted along it
# Method: as §1, §2, §3
# [4] = biological target: Sander vitreus Sandercyanin fluorescent protein (SFP) variant SFP-V71E (mSFP1), SEQ ID NO:2 (Sander vitreus, UniProt A0A1D5B367, V52E); experiment: Biliverdin binding of monomeric SFP variant
# Chain of Sander vitreus Sandercyanin fluorescent protein (SFP) variant SFP-V71E (mSFP1), SEQ ID NO:2 (A0A1D5B367 entry or part of it V52E): as the sequence (A0A1D5B367 entry or part of it A118E) above, with V51E, E117A counted along it
# Method: as §1, §2, §3
# [5] = biological target: T2, Sander vitreus Sandercyanin fluorescent protein (SFP) variant, Phe 55 to alanine (Sander vitreus, UniProt A0A1D5B367, F36A); experiment: Biliverdin binding of SFP mutant; details: Phe 55 to alanine mutation
# T2 construct: preparation not described for this mutant
# T2 sequence (A0A1D5B367 entry or part of it F36A): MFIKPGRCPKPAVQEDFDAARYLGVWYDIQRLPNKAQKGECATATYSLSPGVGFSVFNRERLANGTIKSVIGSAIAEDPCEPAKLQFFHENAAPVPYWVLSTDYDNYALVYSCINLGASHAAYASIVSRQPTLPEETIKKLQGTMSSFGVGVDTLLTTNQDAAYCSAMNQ
structure (smiles),measurement,setting,value
"C=CC1=C(C)/C(=C/C2=NC(=C\c3[nH]c(/C=C4\NC(=O)C(C)=C4C=C)c(C)c3CCC(=O)O)/C(CCC(=O)O)=C2C)NC1=O [BV, Biliverdin IXα]",pKd,"[1]; Table 4, wild-type SFP (tetramer)",5.22 to 5.30
same,pKd,"[1]; affinity of apoSFP towards BV using fluorescence, pH 7.5, room temperature",5.22
same,pKd,[2],5.30 to 5.52
same,pKd,[3],4.92 to 5.40
same,pKd,[4],5.22 to 5.40
same,BV binding,[5],abolished BV binding
